From patent US20230141198A1, “PYRAZOL[…]” (THE KITASATO INSTITUTE, priority 2019, published 2023)

Key:
Format in all cases: cell-based
human opioid δ receptor = target: T1, human opioid δ receptor (Homo sapiens, UniProt P41143); assay: Opioid receptor function test (agonist activity, Lance Ultra cAMP kit), δ receptor; conditions: for Emax: maximum reaction relative to control drug SNC 80 taken as 100%
T1 construct: host or cells: CHO cells
Description: (§1) Opioid Receptor Function Test
(§2) Functional activity of the compound provided by the present invention on μ, δ, and κ opioid receptors was examined.
(§3) Method: Using a Lance Ultra cAMP kit (Perkin Elmer), the functional activity was examined by a predetermined method. In evaluation of agonist activity, CHO cells expressing each of human opioid receptors (δ, μ, and κ: accession numbers and catalog numbers are described below) were reacted with a test compound in an assay buffer (1× HBSS, […], pH 7.4, […] isobutylmethylxanthine (IBMX), 7.5% BSA) in the presence of 10 μM forskolin for 30 minutes. Subsequently, a cAMP detection reagent in the kit was added. One hour later, time-resolved fluorescence measurement was performed using an EnVision plate reader (Perkin Elmer). The test compound and each control drug (δ: SNC 80, μ: DAMGO, κ: U-69593) were evaluated in a concentration range of 10^−12 to 10^−5 M. A dose reaction curve of the test compound was determined from a fluorescence value at 665 nm, and an EC50 value and an Emax value were calculated. The Emax value was determined as a ratio of a maximum reaction of the test compound when a maximum reaction of each control drug was taken as 100%.

hERG channel = target: T2, hERG channel (Homo sapiens, UniProt Q12809); assay: hERG potassium channel inhibition test (auto patch clamp); conditions: hERG channel stably expressing CHO cells, perfused at room temperature for 5 minutes
T2 construct: host or cells: CHO cells
Description: Ether-a-Go-Go Related Gene (hERG) Potassium Channel Inhibition Test
A test was performed using hERG channel stably expressing CHO cells (purchased from Channelopathy Foundation) with a Port-a-Patch auto patch clamping device (Nanion Technologies). A membrane potential of the cells was held at −80 mV, and then a test pulse of −50 mV for 1.5 seconds was applied at a frequency of once every 10 seconds following a depolarization pulse of +20 mV for 1.5 seconds. An hERG current was confirmed by a tail current induced by the test pulse. A test compound was dissolved in an extracellular solution ([…] NaCl, 4 mM KCl, 1.82 mM CaCl2, 1 mM MgCl2, 105 mM D(+)-glucose, 10 mM HEPES, pH 7.4) and perfused at room temperature for 5 minutes. An inhibition ratio was determined from a ratio of a tail current value after application of the compound when a maximum tail current value before application of the compound was taken as 100%. For the test, cells having a peak current value of the tail current of 300 pA or more, tail current run-down of less than 10% of a current initial value, and a leak current of less than 200 pA were used.

human opioid κ receptor = target: T3, human opioid κ receptor (Homo sapiens, UniProt P41145); assay: Opioid receptor function test (agonist activity, Lance Ultra cAMP kit), κ receptor; conditions: for Emax: maximum reaction relative to control drug U-69593 taken as 100%
T3 construct: host or cells: CHO cells
Description: as §1, §2, §3

human opioid μ receptor = target: T4, human opioid μ receptor (Homo sapiens, UniProt P35372); assay: Opioid receptor function test (agonist activity, Lance Ultra cAMP kit), μ receptor
T4 construct: host or cells: CHO cells
Description: as §1, §2, §3

T3 sequence (P41145 whole entry): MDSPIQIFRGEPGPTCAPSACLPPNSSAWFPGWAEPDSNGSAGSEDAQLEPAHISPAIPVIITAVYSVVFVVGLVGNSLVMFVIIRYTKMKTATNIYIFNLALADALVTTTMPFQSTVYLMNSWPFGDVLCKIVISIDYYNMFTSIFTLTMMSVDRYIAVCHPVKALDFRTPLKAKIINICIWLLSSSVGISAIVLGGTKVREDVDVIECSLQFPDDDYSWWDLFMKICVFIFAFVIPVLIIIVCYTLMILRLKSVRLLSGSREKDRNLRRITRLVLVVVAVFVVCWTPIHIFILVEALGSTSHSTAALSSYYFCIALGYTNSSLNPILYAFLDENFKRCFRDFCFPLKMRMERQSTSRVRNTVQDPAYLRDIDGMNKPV
T2 sequence (Q12809 whole entry, the tested form may be a part): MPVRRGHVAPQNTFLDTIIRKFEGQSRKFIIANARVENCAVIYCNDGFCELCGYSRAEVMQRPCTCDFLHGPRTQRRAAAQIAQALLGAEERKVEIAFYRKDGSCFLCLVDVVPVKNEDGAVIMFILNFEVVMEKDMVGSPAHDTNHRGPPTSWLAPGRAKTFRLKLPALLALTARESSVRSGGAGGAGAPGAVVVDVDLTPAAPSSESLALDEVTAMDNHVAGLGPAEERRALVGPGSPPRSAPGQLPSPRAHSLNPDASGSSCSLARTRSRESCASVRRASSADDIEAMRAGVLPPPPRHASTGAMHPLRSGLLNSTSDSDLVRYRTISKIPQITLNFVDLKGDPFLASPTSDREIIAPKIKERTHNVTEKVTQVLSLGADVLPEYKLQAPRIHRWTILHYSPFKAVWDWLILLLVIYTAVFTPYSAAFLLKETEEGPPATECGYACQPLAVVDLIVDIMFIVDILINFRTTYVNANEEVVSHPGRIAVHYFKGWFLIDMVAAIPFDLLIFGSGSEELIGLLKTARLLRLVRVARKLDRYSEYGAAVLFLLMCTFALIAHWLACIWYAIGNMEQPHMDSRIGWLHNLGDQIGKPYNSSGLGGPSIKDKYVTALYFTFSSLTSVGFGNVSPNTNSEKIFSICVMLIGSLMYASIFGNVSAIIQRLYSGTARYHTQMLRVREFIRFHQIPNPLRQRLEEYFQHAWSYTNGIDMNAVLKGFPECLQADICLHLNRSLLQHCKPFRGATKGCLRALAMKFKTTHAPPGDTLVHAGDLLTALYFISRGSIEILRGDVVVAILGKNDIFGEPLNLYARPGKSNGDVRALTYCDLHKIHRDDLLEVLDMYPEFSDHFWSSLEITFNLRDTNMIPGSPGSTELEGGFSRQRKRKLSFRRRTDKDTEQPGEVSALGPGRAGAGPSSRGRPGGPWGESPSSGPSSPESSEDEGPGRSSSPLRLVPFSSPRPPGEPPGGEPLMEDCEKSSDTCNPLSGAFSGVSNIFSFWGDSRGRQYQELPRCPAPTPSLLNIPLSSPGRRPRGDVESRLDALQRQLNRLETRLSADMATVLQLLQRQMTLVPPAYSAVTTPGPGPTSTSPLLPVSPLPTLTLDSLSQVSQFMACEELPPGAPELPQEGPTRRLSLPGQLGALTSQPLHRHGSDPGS
T1 sequence (P41143 whole entry): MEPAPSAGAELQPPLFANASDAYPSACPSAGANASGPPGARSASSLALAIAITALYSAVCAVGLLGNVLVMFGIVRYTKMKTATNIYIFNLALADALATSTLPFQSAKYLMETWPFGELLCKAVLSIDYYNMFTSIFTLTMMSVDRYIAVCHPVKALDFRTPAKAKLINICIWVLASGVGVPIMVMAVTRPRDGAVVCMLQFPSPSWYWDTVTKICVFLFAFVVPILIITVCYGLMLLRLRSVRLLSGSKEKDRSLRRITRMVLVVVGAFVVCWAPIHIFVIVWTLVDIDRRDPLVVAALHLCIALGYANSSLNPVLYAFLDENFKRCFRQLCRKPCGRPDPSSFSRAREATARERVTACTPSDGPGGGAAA
T4 sequence (P35372 whole entry): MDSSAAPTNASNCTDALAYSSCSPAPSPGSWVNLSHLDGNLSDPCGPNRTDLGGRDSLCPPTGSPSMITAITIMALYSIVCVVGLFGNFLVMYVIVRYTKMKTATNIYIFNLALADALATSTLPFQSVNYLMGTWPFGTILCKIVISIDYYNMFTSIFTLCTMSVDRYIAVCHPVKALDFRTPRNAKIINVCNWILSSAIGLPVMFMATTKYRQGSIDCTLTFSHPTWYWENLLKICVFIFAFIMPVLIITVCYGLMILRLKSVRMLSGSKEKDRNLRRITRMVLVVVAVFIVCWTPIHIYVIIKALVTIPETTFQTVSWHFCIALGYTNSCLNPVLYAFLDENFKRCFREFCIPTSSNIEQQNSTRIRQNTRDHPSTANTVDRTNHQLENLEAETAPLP

Compound	EC50 (human opioid δ receptor) [nM]	Emax (human opioid δ receptor) [%]	hERG inhibitory effect (tail current inhibition) (hERG channel)	EC50 (human opioid κ receptor) [nM]	Emax (human opioid κ receptor) [%]	EC50 (human opioid μ receptor) [nM]	Emax (human opioid μ receptor; maximum reaction relative to control drug DAMGO taken as 100%) [%]
Cc1c2c(nn1C(C)(C)C)C[C@]13CCN(CC4CC4)[C@H](Cc4ccc(O)cc41)[C@]3(O)C2 [Compound 24, (6R,6aS,11aR)-9-(tert-butyl)-14-(cyclopropylmethyl)-8-methyl-5,6,9,11-tetrahydro-6,11a-(epiminoethano)naphtho[2,1-f]indazole-2,6a(7H)-diol]	0.14	108	only weak inhibitory effect	17	23		
Cc1nn(C(C)C)c2c1C[C@@]1(O)[C@H]3Cc4ccc(O)cc4[C@@]1(CCN3CC1CC1)C2 [Compound 23, (6R,6aS,11aR)-14-(cyclopropylmethyl)-10-isopropyl-8-methyl-5,6,10,11-tetrahydro-6,11a-(epiminoethano)naphtho[2,1-f]indazole-2,6a(7H)-diol]	0.48	95	only weak inhibitory effect				
Cc1c2c(nn1C(C)C)C[C@]13CCN(CC4CC4)[C@H](Cc4ccc(O)cc41)[C@]3(O)C2 [Compound 22, (6R,6aS,11aR)-14-(cyclopropylmethyl)-9-isopropyl methyl-5,6,9,11-tetrahydro-6,11a-(epiminoethano)naphtho[2,1-f]indazole-2,6a(7H)-diol]	0.18	107	only weak inhibitory effect	13	35	15	15
Cc1nn(CCO)c2c1C[C@@]1(O)[C@H]3Cc4ccc(O)cc4[C@@]1(CCN3CC1CC1)C2 [Compound 44, (6R,6aS,11aR)-14-(cyclopropylmethyl)-10-(2-hydroxyethyl)-8-methyl-5,6,10,11-tetrahydro-6,11a-(epiminoethano)naphtho[2,1-f]indazole-2,6a(7H)-diol]			only weak inhibitory effect				
